Patent US5661167A, “Prolyl endopeptidase inhibitors” (Merrell Pharmaceuticals Inc., priority 1996, dated 1997)

target: T1, Prolyl endopeptidase (Bos taurus, UniProt Q9XTA2); assay: Prolyl endopeptidase enzyme inhibition assay (CBz-Gly-Pro-p-nitroanilide substrate, absorbance at 410 nm); format: biochemical; conditions: prolyl endopeptidase partially purified from bovine brain, buffer A (50 mM HEPES pH 7.4, 1 mM EDTA, 1 mM DTT), 37° C., [S]=50 μM, KM 11 μM, read-out: ENZYME INHIBITION (enzyme inhibition constant, Ki)
T1 construct: Prolyl endopeptidase was partially purified from bovine brain; from tissue; host or cells: bovine brain
T1 sequence (Q9XTA2 1-710): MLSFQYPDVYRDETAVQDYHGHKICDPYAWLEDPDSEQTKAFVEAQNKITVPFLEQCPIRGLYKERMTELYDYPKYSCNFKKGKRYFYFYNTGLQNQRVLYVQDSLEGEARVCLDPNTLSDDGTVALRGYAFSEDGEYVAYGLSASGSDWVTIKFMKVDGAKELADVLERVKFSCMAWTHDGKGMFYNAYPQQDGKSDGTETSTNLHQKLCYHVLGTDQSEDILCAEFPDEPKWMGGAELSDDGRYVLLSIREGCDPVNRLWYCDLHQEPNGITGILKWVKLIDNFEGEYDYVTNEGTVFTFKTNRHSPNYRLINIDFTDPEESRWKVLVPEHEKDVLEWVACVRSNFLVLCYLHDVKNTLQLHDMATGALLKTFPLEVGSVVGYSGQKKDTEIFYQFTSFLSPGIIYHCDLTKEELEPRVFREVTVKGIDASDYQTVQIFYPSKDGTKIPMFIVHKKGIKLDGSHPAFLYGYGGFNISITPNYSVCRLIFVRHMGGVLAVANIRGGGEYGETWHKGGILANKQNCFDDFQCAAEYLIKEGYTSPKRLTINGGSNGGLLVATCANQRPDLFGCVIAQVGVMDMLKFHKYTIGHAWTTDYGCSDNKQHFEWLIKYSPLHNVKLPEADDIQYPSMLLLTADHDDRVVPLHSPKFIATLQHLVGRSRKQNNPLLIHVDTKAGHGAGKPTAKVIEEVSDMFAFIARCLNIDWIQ
Description: Prolyl endopeptidase was partially purified from bovine brain essentially as described by Yoshimoto et al. (Biochem., 94, 1179 (1983)) except that 50 mM HEPES, pH 7.4, was used instead of Tris buffer. This enzyme preparation is suitable for routine inhibition measurements; however, the enzyme may be further purified as described below. The state of purity of the enzyme is not expected to effect the measured Ki. The pellet from the 50%-80% ammonium sulfate cut is redissolved in the homogenization buffer and desalted by passage through a Pharmacia Mono Q column (0.5×5 cm) at 1 ml/min and the column is washed with 5 ml of buffer A to buffer B (total 20 ml; buffer A=50 mM HEPES, pH 7.4, 1 mM EDTA and 1 mM DTT; buffer B=buffer A+0.5M NaCl). Enzyme activity elutes at about [NaCl]=0.25M.
The enzyme is assayed in buffer A (3.0 ml) at 37° C. containing 20 μM substrate (CBz-Gly-Pro-p-nitroanilide). The increase in absorbance at 410 nm is monitored (410 nm =8.4 mM^-1 cm^-1). Inhibitor stock solutions are made in DMSO. To characterize reversible competitive inhibitors, the initial rates in the presence of three inhibitor concentrations are measured using [S]=50 μM (KM for the substrate is 11 μM). If slow binding is observed, the final equilibrium rates are used.
The Ki for a competitive inhibitor is calculated using known formulas: vo /vi =(1+[I]/Ki, app) and Ki =Ki, app/(1+[S]/KM), where vo is the initial rate in the absence of inhibitor, vi is the initial rate in the presence of inhibitor at the concentration [I], and [S] is the substrate concentration. If "slow binding" is observed (i.e. if the approach to the binding equilibrium is slow), the final steady-state rate rather than the initial rate is taken as vi.
Enzyme inhibition constants were found using the described methods for various compounds of formula 1.

Q: How did the Ki turn out when `CC(C)(C)OC(=O)N1CSCC1C(=O)N1CSCC1C(=O)C(F)(F)C(F)(F)F` (stereo not drawn) [EXAMPLE IV, 4-[[4-(2,2,3,3,3-pentafluoro-1-oxopropyl)-3-thiazolidinyl]carbonyl]-3-thiazolidinecarboxylic acid, 1,1-dimethylethyl ester] was run?
A: Its Ki is 1 nM.

Q: With `O=C(OCc1ccccc1)N1CSCC1C(=O)N1CCCC1C(=O)C(F)(F)C(F)(F)F` (stereo not drawn) [EXAMPLE II, 4-[[2-(2,2,3,3,3-pentafluoro-1-oxopropyl)-1-pyrrolidinyl]carbonyl]-3-thiazolidinecarboxylic acid, phenylmethyl ester] as the compound, how does the Ki read?
A: The Ki was 1 nM.

Q: `O=C(OCc1ccccc1)N1CCCC1C(=O)N1CCCC1C(=O)C(F)(F)C(F)(F)F` (stereo not drawn) [EXAMPLE I, 2-[[2-(2,2,3,3,3-pentafluoro-1-oxopropyl)-1-pyrrolidinyl]carbonyl]-1-pyrrolidinecarboxylic acid, phenylmethyl ester] was tested. Which Ki did it give?
A: The Ki was 1.4 nM.
